From publication PMC8178808, “Exploring conformational preferences of proteins: ionic liquid effects on the energy landscape of avidin” (Chemical Science, 2020) come the findings set out here.

The experiment addresses T1, avidin (unmodified, native) (Gallus gallus, UniProt P02701).
T1 construct: gene AVD; natural secreted glycoprotein from egg white (mature chain, signal peptide removed), commercial lyophilised (Merck), untagged; homotetramer, one ligand site per monomer
Nature of the experiment: UV-Vis titration at […] nm, non-linear regression (Hill-Langmuir). The class given is binding. As to conditions: read-out: Unmodified avidin / K d (×10^-5 mol dm^-3).

SMILES strings stand for the structures.

T1 sequence (P02701 25-152): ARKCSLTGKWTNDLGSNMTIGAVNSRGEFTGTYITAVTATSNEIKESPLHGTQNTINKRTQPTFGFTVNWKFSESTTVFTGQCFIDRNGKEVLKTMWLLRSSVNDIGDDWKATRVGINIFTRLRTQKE

On to `O=C(O)c1ccccc1N=Nc1ccc(O)cc1` [HABA], for which the Kd was determined as 11 µM.
